In ChEMBL document CHEMBL1201862, “PubChem BioAssay data set” (2004):
The source made the active and inactive calls.

Tests used:
[1] = target: T1, Mannose-6-phosphate isomerase (Homo sapiens, UniProt P34949); test: MPI enzyme activity inhibition – biochemical, fluorescence intensity, coupled assay, primary screen (AID 1209)
T1 sequence (P34949 whole entry): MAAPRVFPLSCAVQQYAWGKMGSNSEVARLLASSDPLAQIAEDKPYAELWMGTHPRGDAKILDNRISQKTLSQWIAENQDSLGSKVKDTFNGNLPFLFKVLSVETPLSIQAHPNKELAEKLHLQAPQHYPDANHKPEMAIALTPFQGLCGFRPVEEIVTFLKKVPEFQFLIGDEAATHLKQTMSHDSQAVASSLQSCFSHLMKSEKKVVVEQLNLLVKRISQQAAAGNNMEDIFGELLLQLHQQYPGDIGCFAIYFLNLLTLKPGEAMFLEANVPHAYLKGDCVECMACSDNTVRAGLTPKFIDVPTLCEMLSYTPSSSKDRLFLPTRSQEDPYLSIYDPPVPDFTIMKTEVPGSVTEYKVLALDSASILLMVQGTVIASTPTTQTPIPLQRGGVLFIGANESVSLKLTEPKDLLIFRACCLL

[2] = A cytotoxicity screen of small molecule inhibitors of the PhoP region in Salmonella typhi identified in the primary screen. [Related pubchem assays: 1850, 1864, 1985 ]; format: functional
[3] = target: T2, Peroxisome proliferator-activated receptor gamma/Nuclear receptor coactivator 1 (Homo sapiens, UniProt P37231); format: functional
[4] = target: T3, Peroxisome proliferator-activated receptor gamma/Nuclear receptor coactivator 3 (Homo sapiens, UniProt P37231); format: functional
T3 sequence (P37231 whole entry): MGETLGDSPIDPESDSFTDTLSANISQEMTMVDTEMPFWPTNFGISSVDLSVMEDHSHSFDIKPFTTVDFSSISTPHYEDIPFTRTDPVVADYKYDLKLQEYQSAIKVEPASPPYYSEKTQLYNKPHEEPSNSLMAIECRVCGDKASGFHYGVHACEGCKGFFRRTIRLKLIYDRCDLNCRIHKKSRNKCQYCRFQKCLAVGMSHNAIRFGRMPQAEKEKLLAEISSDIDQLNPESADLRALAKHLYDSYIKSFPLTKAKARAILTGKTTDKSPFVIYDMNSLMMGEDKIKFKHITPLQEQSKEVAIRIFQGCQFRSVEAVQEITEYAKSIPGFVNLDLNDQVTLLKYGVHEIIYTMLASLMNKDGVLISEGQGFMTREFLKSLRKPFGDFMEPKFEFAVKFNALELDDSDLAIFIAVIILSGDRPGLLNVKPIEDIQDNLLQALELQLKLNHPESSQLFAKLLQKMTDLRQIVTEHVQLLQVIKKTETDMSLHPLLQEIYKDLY
T3 sequence (Q9Y6Q9 whole entry, further chain): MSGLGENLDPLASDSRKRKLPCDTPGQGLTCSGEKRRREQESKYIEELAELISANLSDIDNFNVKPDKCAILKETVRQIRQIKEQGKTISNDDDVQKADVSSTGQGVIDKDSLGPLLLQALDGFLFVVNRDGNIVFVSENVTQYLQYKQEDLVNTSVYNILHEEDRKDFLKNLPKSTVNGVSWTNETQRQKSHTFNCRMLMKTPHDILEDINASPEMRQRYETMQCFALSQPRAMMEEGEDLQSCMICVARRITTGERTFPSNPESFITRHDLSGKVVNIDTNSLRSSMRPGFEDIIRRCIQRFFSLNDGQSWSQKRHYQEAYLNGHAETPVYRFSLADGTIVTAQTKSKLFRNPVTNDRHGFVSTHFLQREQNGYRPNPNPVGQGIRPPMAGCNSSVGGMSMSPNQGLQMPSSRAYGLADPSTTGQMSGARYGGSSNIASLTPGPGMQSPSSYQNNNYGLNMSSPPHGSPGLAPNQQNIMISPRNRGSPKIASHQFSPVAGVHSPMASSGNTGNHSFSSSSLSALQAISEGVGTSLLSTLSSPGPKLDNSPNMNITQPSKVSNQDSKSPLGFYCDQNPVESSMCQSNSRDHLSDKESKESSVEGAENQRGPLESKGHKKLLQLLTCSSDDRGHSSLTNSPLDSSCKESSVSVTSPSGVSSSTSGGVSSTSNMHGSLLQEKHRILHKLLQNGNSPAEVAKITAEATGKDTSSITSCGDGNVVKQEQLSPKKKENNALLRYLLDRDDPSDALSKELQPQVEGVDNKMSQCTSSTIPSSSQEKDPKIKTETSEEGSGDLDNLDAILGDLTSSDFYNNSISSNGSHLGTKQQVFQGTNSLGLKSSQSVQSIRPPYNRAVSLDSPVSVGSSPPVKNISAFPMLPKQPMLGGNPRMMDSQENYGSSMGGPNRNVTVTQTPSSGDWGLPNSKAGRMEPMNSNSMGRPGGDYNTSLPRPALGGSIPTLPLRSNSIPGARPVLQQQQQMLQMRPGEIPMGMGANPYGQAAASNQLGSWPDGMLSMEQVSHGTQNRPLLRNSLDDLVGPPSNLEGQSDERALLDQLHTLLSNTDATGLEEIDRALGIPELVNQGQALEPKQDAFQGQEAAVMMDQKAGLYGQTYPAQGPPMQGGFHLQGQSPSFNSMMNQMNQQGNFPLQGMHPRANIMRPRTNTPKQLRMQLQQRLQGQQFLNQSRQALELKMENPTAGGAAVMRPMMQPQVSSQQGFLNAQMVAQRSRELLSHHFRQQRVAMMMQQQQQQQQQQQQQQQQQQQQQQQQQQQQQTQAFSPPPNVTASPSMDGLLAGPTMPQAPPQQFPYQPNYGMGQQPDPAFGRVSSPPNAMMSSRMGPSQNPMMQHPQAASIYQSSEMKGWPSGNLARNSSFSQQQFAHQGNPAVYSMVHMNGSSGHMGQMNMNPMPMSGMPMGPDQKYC

[5] = target: T4, Peroxisome proliferator-activated receptor gamma/Nuclear receptor coactivator 2 (Homo sapiens, UniProt P37231); format: functional
T4 sequence (P37231 whole entry): as the sequence (P37231 whole entry) above
T4 sequence (Q15596 whole entry, further chain): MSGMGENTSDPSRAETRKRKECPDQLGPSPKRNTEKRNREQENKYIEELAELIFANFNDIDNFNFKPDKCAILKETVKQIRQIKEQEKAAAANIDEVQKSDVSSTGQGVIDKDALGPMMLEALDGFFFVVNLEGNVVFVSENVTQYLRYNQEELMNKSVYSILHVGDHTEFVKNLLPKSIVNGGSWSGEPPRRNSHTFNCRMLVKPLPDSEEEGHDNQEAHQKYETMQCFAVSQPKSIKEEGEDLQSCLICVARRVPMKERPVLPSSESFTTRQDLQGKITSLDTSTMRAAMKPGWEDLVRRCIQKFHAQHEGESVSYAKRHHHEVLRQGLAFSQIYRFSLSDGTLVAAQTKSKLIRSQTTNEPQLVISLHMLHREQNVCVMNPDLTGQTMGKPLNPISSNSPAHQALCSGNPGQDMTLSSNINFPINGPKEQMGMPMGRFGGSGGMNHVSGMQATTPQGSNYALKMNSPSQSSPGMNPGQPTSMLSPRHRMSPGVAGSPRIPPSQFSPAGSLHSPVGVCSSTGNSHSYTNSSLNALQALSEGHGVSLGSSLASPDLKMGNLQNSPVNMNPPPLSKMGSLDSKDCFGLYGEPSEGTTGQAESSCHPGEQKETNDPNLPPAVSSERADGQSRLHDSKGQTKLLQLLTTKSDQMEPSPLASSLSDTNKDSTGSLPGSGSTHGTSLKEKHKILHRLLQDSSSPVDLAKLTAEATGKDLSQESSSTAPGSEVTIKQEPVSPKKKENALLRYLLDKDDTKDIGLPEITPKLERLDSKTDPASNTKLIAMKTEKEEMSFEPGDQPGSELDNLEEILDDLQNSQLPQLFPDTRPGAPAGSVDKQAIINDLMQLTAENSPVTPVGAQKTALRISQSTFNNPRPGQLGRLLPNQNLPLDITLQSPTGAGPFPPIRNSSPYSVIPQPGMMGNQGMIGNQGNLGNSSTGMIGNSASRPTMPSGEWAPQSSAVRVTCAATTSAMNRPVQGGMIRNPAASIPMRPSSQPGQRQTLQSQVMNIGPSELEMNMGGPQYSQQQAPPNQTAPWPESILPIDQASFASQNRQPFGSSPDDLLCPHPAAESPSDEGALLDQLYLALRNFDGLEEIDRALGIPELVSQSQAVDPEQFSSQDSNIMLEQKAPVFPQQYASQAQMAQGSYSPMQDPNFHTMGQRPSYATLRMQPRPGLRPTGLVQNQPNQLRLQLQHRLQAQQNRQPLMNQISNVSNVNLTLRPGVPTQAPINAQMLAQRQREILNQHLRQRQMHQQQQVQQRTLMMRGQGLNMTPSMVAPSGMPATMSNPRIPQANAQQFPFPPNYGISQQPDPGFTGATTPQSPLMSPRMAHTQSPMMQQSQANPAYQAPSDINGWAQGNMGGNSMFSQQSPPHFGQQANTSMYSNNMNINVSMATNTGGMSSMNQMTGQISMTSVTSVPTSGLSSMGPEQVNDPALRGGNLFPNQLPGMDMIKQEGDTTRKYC

[6] = HEK-293T viability loss after treatment – luminescence, T-cell screen hits, cytotoxicity control for TCR NF-kB inhibitor project, dose response (AID 489026); format: functional, cell-based;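 note: cells exposed to compound about 14 hours before the viability readout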
[7] = Luminescence Cell-Based Dose Retest to Confirm Inhibitors of Cancer Stem Cells. [Related pubchem assays (depositor defined):AID2717, AID2721]; format: functional; details: Homo sapiens
[8] = tested on: HEK293; test: cells; details: Homo sapiens
[9] = tested on: HEK293; test: cells; details: Homo sapiens; remark: listed apart in the source
[10] = target: T5, Protein Tat (Human immunodeficiency virus type 1 group M subtype B (isolate HXB2)(HIV-1), UniProt P04608); format: functional;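 note: tat binding to TAR RNA read out by fluorescence polarization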
T5 sequence (P04608 whole entry): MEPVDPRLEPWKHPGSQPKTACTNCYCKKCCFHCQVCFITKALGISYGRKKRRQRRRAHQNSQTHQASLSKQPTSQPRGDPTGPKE

[11] = viability loss in THP-1 monocytes – THP-1 cells, cytotoxicity control for Vif-APOBEC3G degradation inhibitor project, dose response (AID 1117359); format: functional; details: THP-1
[12] = target: T3, Peroxisome proliferator-activated receptor gamma/Nuclear receptor coactivator 3; test: TR-FRET dose response biochemical High Throughput Screening assay for agonists of the steroid receptor coactivator 3 (SRC-3) recruitment by the peroxisome proliferator-activated receptor gamma (PPAR gamma): non-selective agonists. [Related pubchem assays: 1301 (Confirmation screen.), 1048 (Primary screen.)]; format: functional
[13] = target: T4, Peroxisome proliferator-activated receptor gamma/Nuclear receptor coactivator 2; test: (§1) TR-FRET dose response biochemical High Throughput Screening assay for agonists of the steroid receptor coactivator 2 (SRC-2) recruitment by the peroxisome proliferator-activated receptor gamma (PPAR gamma): non-selective agonists. [Related pubchem assays: 1297, 1032 ]; format: functional
[14] = target: T2, Peroxisome proliferator-activated receptor gamma/Nuclear receptor coactivator 1; test: as §1, with “1 (SRC-1)” for “2 (SRC-2)”, “assays (depositor defined):AID1300, AID1808, AID504735, AID631]” for “assays: 1297, 1032 ]”; format: protein assay
[15] = target: Estrogen receptor beta (Homo sapiens, UniProt Q92731);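 note: recombinant ER-beta bound to coactivator SRC1 peptide in presence of estradiol agonist; inhibitors block coactivator peptide binding and lower the FRET signal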
Estrogen receptor beta, sequence (Q92731 whole entry): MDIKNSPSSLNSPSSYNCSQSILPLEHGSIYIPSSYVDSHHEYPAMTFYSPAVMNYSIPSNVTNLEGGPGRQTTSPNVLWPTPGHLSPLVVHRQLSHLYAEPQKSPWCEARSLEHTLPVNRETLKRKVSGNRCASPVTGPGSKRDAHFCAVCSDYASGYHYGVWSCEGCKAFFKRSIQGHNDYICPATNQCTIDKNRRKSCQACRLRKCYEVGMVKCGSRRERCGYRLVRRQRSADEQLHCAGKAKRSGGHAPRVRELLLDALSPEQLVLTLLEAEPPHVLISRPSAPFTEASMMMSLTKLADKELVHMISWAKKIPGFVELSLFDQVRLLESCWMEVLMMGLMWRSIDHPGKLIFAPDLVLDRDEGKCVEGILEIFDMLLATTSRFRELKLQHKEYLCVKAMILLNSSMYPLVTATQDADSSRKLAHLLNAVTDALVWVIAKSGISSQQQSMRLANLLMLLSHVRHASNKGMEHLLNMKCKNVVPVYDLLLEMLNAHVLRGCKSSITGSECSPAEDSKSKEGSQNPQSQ

[16] = target: T6, High affinity choline transporter 1 (Homo sapiens, UniProt Q9GZV3); test: human choline transporter blockers, potency – cell-based, 5-point CRC, membrane potential dye, dose response (AID 504840); format: functional
T6 sequence (Q9GZV3 whole entry): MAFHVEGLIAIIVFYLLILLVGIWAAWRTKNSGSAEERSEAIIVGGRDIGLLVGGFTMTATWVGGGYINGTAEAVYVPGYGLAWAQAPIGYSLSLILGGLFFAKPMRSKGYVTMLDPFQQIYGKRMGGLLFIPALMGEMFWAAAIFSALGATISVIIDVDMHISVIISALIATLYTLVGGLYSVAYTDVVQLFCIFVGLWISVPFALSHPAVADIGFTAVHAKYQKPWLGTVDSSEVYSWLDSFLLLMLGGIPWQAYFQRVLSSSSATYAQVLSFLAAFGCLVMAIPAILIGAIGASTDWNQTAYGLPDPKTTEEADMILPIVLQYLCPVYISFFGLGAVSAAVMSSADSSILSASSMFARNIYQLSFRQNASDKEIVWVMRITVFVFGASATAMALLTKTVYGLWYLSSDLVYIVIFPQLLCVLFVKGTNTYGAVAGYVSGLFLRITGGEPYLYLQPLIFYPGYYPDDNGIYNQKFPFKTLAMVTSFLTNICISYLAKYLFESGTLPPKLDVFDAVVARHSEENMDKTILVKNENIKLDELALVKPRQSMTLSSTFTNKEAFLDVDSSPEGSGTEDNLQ

[17] = Luminescence Cell-Based Dose Confirmation HTS to Identify Inhibitors of Platelet Dense Granule Release. [Related pubchem assays: 1663 (Primary HTS), 1678 (Summary of Project)]; format: functional
[18] = luciferase reporter signal suppression in cells – H4 neuroglioma cells, luminescence, dose response (AID 1990); format: functional, cell-based
[19] = Luminescence Cell-Based Dose Response HTS to Identify Inhibitors of 5'UTR Stem-Loop Driven Prion Protein mRNA Translation in H4 Neuroglioblastoma Cells. [Related pubchem assays: 1827 (Project Summary), 1813 (Primary HTS)]; format: functional
[20] = alpha-synuclein stem-loop luciferase translation blockers – H4 neuroglioma cells, luminescence, confirmation (AID 1988); format: functional, cell-based
[21] = target: Luciferin 4-monooxygenase (Photinus pyralis, UniProt P08659); test: inhibition of purified Photinus pyralis luciferase – biochemical, luminescence, dose response (AID 1891)
[22] = target: T7, Cytochrome P450 1A2 (Homo sapiens, UniProt P05177);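 note: PubChem cytochrome P450 panel assay, CYP1A2 panel member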
T7 sequence (P05177 whole entry): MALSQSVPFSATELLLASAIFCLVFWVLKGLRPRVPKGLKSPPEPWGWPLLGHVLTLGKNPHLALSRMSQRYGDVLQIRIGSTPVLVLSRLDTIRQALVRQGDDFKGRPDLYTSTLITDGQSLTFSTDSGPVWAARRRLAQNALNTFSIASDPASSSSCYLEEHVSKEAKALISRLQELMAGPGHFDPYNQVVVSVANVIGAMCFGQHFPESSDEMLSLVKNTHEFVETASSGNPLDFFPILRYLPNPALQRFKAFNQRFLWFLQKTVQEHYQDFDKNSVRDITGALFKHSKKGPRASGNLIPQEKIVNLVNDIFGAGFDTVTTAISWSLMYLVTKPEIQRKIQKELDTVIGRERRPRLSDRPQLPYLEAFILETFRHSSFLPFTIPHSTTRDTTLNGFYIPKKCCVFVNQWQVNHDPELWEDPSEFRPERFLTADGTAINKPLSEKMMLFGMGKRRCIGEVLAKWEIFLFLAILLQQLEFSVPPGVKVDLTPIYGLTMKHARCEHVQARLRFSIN

[23] = target: Cytochrome P450 2D6 (Homo sapiens, UniProt P10635);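 note: CYP2D6 member of a cytochrome P450 panel assay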
Cytochrome P450 2D6, sequence (P10635 whole entry): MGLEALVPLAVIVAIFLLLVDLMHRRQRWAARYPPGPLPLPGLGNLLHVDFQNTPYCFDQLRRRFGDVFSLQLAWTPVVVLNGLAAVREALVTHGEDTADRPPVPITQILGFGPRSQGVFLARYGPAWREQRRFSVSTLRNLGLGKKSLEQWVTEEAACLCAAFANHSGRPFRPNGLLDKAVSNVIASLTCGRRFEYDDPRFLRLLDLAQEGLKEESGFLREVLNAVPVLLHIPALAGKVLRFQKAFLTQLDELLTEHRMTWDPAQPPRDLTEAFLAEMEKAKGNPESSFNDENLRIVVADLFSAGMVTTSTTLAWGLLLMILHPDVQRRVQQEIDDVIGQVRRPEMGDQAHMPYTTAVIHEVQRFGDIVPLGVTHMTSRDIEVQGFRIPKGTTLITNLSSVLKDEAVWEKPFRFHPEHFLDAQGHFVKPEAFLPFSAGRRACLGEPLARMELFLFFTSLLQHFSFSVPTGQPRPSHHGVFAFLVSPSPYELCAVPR

[24] = target: T8, Rac GTPase-activating protein 1 (Homo sapiens, UniProt Q9H0H5); test: blockers of MgcRacGAP-driven Rac1 GTP hydrolysis – biochemical, ADP Hunter fluorescence, primary and confirmatory, confirmation (AID 624330); format: functional
T8 sequence (Q9H0H5 whole entry): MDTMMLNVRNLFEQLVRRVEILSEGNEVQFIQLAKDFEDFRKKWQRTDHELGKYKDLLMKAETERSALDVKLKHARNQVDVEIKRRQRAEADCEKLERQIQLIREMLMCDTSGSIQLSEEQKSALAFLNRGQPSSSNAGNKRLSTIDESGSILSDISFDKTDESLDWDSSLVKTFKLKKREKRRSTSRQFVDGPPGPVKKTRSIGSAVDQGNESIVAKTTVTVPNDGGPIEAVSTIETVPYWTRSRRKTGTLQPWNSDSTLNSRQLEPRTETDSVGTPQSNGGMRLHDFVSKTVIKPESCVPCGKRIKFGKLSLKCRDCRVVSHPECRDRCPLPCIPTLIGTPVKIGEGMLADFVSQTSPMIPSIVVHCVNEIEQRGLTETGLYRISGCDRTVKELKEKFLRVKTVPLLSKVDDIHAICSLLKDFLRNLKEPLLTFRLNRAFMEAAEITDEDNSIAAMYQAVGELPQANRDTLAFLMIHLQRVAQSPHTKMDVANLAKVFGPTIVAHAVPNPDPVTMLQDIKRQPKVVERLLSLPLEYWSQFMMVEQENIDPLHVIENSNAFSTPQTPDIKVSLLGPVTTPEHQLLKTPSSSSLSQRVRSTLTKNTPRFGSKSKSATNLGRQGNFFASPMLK

## COc1ccccc1CSc1nc(-c2ccc([N+](=O)[O-])cc2)c[nH]1
[1]
  IC50: > 50 µM (not active)

## COc1ccc(CNCC(O)COc2ccc(C)cc2[N+](=O)[O-])cc1 (centres undefined)
[2]
  EC50: > 50 µM (active)

## COc1ccc(-c2noc(-c3ccc(Br)o3)n2)cc1OC
[3]
  EC50: 64.1 µM (not active)
[4]
  EC50: 68.6 µM (not active)
[5]
  EC50: 63 µM (not active)

## COc1ccc([N+](=O)[O-])cc1Nc1c2ccccc2nc2ccccc12
[6]
  IC50: > 80 µM (inactive)
[7]
  AC50: 0.956 µM (active)
[8]
  EC50: > 59.6 µM (inactive)
[9]
  EC50: > 59.6 µM (inactive)

## Cc1cc(C)cc(NCc2cc3c(cc2[N+](=O)[O-])OCO3)c1
[10]
  IC50: > 100 µM (inconclusive)
[11]
  CC50: > 40 µM (active)

## CCCC(=O)Nc1nc(C)c(C(C)=O)s1
[12]
  EC50: > 79.4 µM (not active)
[13]
  EC50: 137 µM (not active)
[14]
  EC50: > 79.4 µM (inactive)

## Cc1ccc(C)c(Cn2c(=O)n(-c3ccc(CC(=O)NCc4ccco4)cc3)c(=O)c3sccc32)c1
[15]
  IC50: > 50 µM (not active)

## Cc1ccc(C2=NN=C(NC(=O)C(F)(F)F)SC2)cc1
[1]
  IC50: > 50 µM (not active)

## COc1cc2c(cc1OC)-c1cc(NC3CCCCCCC3)nc(=O)n1CC2
[16]
  IC50: 7.99 µM (active)
[17]
  EC50: 6.92 µM (active)
[18]
  EC50: 28.4 µM (active)
[19]
  EC50: 0.18 µM (active)
[8]
  EC50: > 59.7 µM (inactive)
[9]
  EC50: > 59.7 µM (inactive)
[20]
  EC50: > 120 µM (not active)
[21]
  EC50: > 112 µM (not active)

## Cc1ccc(-c2ccc(/C=C(\C#N)C(N)=S)o2)c([N+](=O)[O-])c1
[3]
  EC50: > 79.4 µM (not active)
[4]
  EC50: > 79.4 µM (not active)
[5]
  EC50: > 79.4 µM (not active)

## Cc1ccc2nc(SCC(=O)NCc3cccs3)c(C#N)cc2c1
[22]
  AC50: 0.708 µM (inconclusive)
[23]
  AC50: 0.316 µM (inconclusive)
[3]
  EC50: 19 µM (not active)
[4]
  EC50: 20.8 µM (not active)
[5]
  EC50: 11.6 µM (not active)

## COc1ccc(N2C(=O)CC(N3CC=C(c4ccccc4)CC3)C2=O)cc1 (centres undefined)
[2]
  EC50: > 50 µM (active)

## Oc1ncnc2c1c(-c1ccccc1)cn2-c1ccc(F)cc1
[8]
  EC50: > 59.6 µM (inactive)
[9]
  EC50: > 59.6 µM (inactive)

## Cn1c(=O)c2c(ncn2CCCNC2=CC(C)(C)CC(=O)C2)n(C)c1=O
[15]
  IC50: > 50 µM (not active)

## CC(C)CNC(CC(=O)O)c1ccccc1 (centres undefined)
[2]
  EC50: > 50 µM (active)

## C/C(=C\C(=O)c1cccnc1)Nc1ccc(O)cc1
[10]
  IC50: 26.2 µM (inconclusive)
[24]
  IC50: 14.7 µM (active)
